In brackets after ≈: the same amount, converted by molar mass.
What was measured:
[1] = system: Calf thymus DNA; assay: Binding affinity to calf thymus DNA; assay type: nucleic-acid assay, Bos taurus
[2] = system: KB; assay: Cytotoxicity against human KB cells after 48 hrs; assay type: functional, cell-based
[3] = system: KB; assay: Cytotoxicity against human KB cells after 48 hrs in presence of exogenous DNA; assay type: functional, cell-based

For C/C=C(\C)C(=O)OC(C)CC1CCCN1C(=O)CCCCCCCCC (stereo not drawn) [CONIOIDINE A], the Kd [1] was 2800 nM, the IC50 [2] was 0.67 µg/mL (≈ 1.83 µM) and the IC50 [3] was 2.1 µg/mL.
